Measured values as given in patent US11020358B2, “Method for the anti-senescence of and/or rejuvenating stem cells” (GWO XI STEM CELL APPLIED TECHNOLOGY CO., LTD., priority 2014, dated 2021).

System: ADSCs
Assay: Osteogenic differentiation assay
Assay type: cell-based, human
Conditions: H2O2 group ADSCs (100 μM 2 h), compared to untreated group
Description: Four portions of equal volume of the above culture medium containing the sub-cultured ADSCs were separately handled by adding thereinto H2O2 (purchased from Sigma-Aldrich) at a final concentration of 100 μM and reacting for 2 hours to induce senescence of the ADSCs, replacing the culture medium with a fresh culture medium, adding thereinto TC (trans-cinnamaldehyde, purchased from Sigma-Aldrich) at a final concentration of 0, 2, 4 or 6 μM and reacting for 6 hours, so as to obtain “H2O2 group (i.e., treated with H2O2 for 2 hours, but not treated with TC),” “H2O2+TC2 group (i.e., treated with H2O2 for 2 hours and then treated with 2 μM of TC for 6 hours),” “H2O2+TC4 group (i.e., treated with H2O2 for 2 hours and then treated with 4 μM of TC for 6 hours),” and “H2O2+TC6 group (i.e., treated with H2O2 for 2 hours and then treated with 6 μM of TC for 6 hours)” ADSCs. […] After being photographed, the absorbance at a wavelength of 450 nm (i.e., OD450) of each sample was measured to figure out the effect of H2O2 and/or TC on the osteogenic differentiation capacity of ADSCs.

Q: For `OO` [H2O2, reference compound], which “cell number after osteogenic differentiation (OD450)” value is on record?
A: Its value is “significantly reduced”.
